These results are taken from ChEMBL document CHEMBL1201862, “PubChem BioAssay data set” (2004).

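Values below derive from 48-hour exposures of cells grown in 96-well plates, with endpoints linearly interpolated between the two concentrations bracketing the appropriate inhibition level. At the GI50, growth is halved.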 Activity calls are given as the source filed them. Rule as the data show it: active = GI50 up to about 1.1 µM and inactive = higher.

Assay in all cases: NCI-60 cell line screen, 48 h
Experiment [1] has as its system SF-539.
Experiment [2] relates to SF-295.
The subject of experiment [3] is HCT-15.
The subject of experiment [4] is OVCAR-8.
For experiment [5], the system named is HT-29.
The subject of experiment [6] is MOLT-4.
Experiment [7] deals with UACC-257.
Experiment [8] concerns Malme-3M.
Experiment [9] deals with SK-MEL-5.
Experiment [10] deals with SN12C.
The subject of experiment [11] is A549.
Experiment [12] concerns HL-60.
The subject of experiment [13] is LOX IMVI.
Experiment [14] has as its system HOP-92.
Experiment [15] deals with UACC-62.
Experiment [16] relates to SK-MEL-2.
Experiment [17] concerns RXF 393.
In experiment [18] the test system is EKVX.
The test system of experiment [19] is UO-31.
Experiment [20] relates to MDA-MB-435.

On to `CC1=C(C(=O)NCc2ccccc2)C(c2ccc(Cl)c(Cl)c2)C(C(=O)NCc2ccccc2)=C(C)N1`, for which the GI50 in experiment [1] is > 100 µM (inactive); in experiment [2] it was > 100 µM (inactive); in experiment [3], more than 100 µM; in [4], > 100 µM (inactive); in experiment [5], > 100 µM (inactive); in [6] it was > 100 µM (inactive). The GI50 in [7], in experiment [8], in experiment [9], in [10], in experiment [11] and in experiment [12] was > 100 µM (inactive) throughout. Further, the GI50 in [13], in [14], in experiment [15], in [16], in [17] and in experiment [18] was > 100 µM (inactive) each time. Further, the GI50 in experiment [19] is > 100 µM (inactive).

Turning to `c1cn(C23C4C5C6C4C2C6C53)cn1` (centres undefined), the GI50 in experiment [1] was > 100 µM (inactive); in [2], > 100 µM (inactive); in experiment [3] it was more than 100 µM; in experiment [4], > 100 µM (inactive); in experiment [5], > 100 µM (inactive); in experiment [6] it was > 100 µM (inactive). Moreover, the GI50 in [7], in [9], in [10], in experiment [11], in experiment [12] and in experiment [13] was > 100 µM (inactive) each time. Moreover, the GI50 in [16], in experiment [20] and in [18] was > 100 µM (inactive) throughout.

Consider `O=[N+]([O-])c1ccc(-n2nnc(C3=NCCN3)c2-c2ccccc2)cc1`, for which the GI50 in [1] was > 100 µM (inactive); in experiment [2] it was > 100 µM (inactive); in experiment [3] it was more than 100 µM; in [4], > 100 µM (inactive); in [5], > 100 µM (inactive); in [6], > 100 µM (inactive). The GI50 in [7], in experiment [8], in [9], in [10], in experiment [11] and in experiment [12] was > 100 µM (inactive) in each case. The GI50 in [13], in experiment [14], in [15], in [16], in experiment [17] and in [18] was > 100 µM (inactive) in each case. For the same compound, the GI50 in experiment [19] is > 100 µM (inactive).

As to `N#CC1=C(Cl)NC(Cl)=C(C#N)C1c1ccc(Cl)cc1`, the GI50 in experiment [1] is 18.1 µM (inactive); in experiment [2] it was 27.2 µM (inactive); in experiment [3], 15.4 µM; in experiment [4], 16.2 µM (inactive); in [5], 16 µM (inactive); in [6], 18.7 µM (inactive). The GI50 in [7] is 18.3 µM (inactive); in experiment [8], 21.3 µM (inactive); in experiment [9] it was 17 µM (inactive); in [10], 16.9 µM (inactive); in [11], 22.1 µM (inactive); in experiment [12], 18.5 µM (inactive). Also, the GI50 in [13] is 16.1 µM (inactive); in experiment [14], 15.2 µM (inactive); in experiment [15], 16.7 µM (inactive); in experiment [16] it was 13.9 µM (inactive); in experiment [17], 17.1 µM (inactive); in [18] it was 19.5 µM (inactive). Moreover, in experiment [19], the GI50 was 17 µM (inactive).

For `COC(=O)c1c[nH]c2nc(N3CCOCC3)nn2c1=O`, the GI50 in experiment [1] is > 100 µM (inactive); in experiment [2] it was > 100 µM (inactive); in experiment [3], more than 100 µM; in [4], > 100 µM (inactive); in [5], > 100 µM (inactive); in [6], > 100 µM (inactive). Moreover, the GI50 in experiment [7], in [8], in experiment [9], in experiment [10], in experiment [11] and in [12] was > 100 µM (inactive) in each case. The GI50 in experiment [13], in experiment [14], in [15], in experiment [16], in experiment [17] and in [18] was > 100 µM (inactive) in each case. Moreover, the GI50 in experiment [19] is > 100 µM (inactive).

With `CCOc1ccccc1NC(=O)C1=C(C)NC(C)=C(C(=O)Nc2ccccc2OCC)C1c1cccc([N+](=O)[O-])c1`, the GI50 in experiment [1] was 40.2 µM (inactive); in [2], > 100 µM (inactive); in [4], 86.5 µM (inactive); in experiment [5], 98.4 µM (inactive); in experiment [6], 11.8 µM (inactive); in experiment [7], 27.2 µM (inactive). In addition, the GI50 in experiment [8] is 58.3 µM (inactive); in experiment [9], 32.1 µM (inactive); in [10] it was > 100 µM (inactive); in experiment [11], 31.6 µM (inactive); in experiment [12], 30.5 µM (inactive); in experiment [13], 66.8 µM (inactive). For the same compound, the GI50 in experiment [14] is 4.29 µM (inactive); in experiment [16], 39.3 µM (inactive); in experiment [17] it was 47.4 µM (inactive); in experiment [18], 30.1 µM (inactive); in [19], 28.2 µM (inactive).

For the compound `CC(=O)CC(=O)N(CCN(C(=O)CC(C)=O)c1ccccc1)c1ccccc1`, the GI50 in experiment [1] is > 100 µM (inactive); in experiment [2] it was > 100 µM (inactive); in [4] it was > 100 µM (inactive); in experiment [6], > 100 µM (inactive); in [7], 32.2 µM (inactive); in experiment [8], > 100 µM (inactive). For the same compound, the GI50 in experiment [9] is > 100 µM (inactive); in [10], > 100 µM (inactive); in [11] it was > 100 µM (inactive); in [12] it was 43.4 µM (inactive); in [13] it was > 100 µM (inactive); in experiment [14] it was > 100 µM (inactive). The GI50 in experiment [15], in experiment [16], in [17], in experiment [18] and in experiment [19] was > 100 µM (inactive) each time.

Take `CCN(c1n[n+]2c(-c3ccccc3)csc2s1)c1n[n+]2c(-c3ccccc3)csc2s1`: the GI50 is > 100 µM (inactive) in [1]; > 100 µM (inactive) in [2]; more than 100 µM in experiment [3]; 74.3 µM (inactive) in experiment [4]; 66.1 µM (inactive) in experiment [5]; 37.5 µM (inactive) in experiment [6]. For the same compound, the GI50 was 36.9 µM (inactive) in experiment [7]; 23.3 µM (inactive) in [8]; 38 µM (inactive) in [9]; > 100 µM (inactive) in experiment [10]; > 100 µM (inactive) in experiment [11]; 22.3 µM (inactive) in experiment [12]. Besides, the GI50 is 57.9 µM (inactive) in experiment [13]; > 100 µM (inactive) in experiment [14]; > 100 µM (inactive) in experiment [15]; 44.1 µM (inactive) in experiment [16]; 65.9 µM (inactive) in experiment [17]; > 100 µM (inactive) in [18]. The GI50 in experiment [19] was > 100 µM (inactive).
